# pEC50: −log10 of the molar value.
# System: P. falciparum (NF54 or 3D7 strain)
# Experiment: Assay for P. falciparum proliferation in infected human blood cells (SYBR Green)
# Assay type: cell-based, Plasmodium falciparum
# Settings: Plasmodium falciparum, Erythrocyte, 72 h, NF54 or 3D7 infected human erythrocytes, 72 hours; read-out: EC50 (nM), inhibitory efficacy in delaying P. falciparum proliferation in infected human blood cells
# Description: Assay for P. falciparum Proliferation in Infected Human Blood Cells
# Compounds of the invention can be assayed to measure their capacity to inhibit proliferation of P. falciparum parasitemia in infected red blood cells. This parasite proliferation assay measures the increase in parasite DNA content using a DNA intercalating dye, SYBR Green® (INVITROGEN®) which has a high affinity for double stranded DNA.
# NF54 or 3D7 P. falciparum strain is grown in complete culturing media until parasitemia reaches 3% to 8% with O+ human erythrocytes. […] 20 μl of screening media is dispensed into 384 well assay plates. 50 nl of compounds of the invention (in DMSO), including antimalarial controls (mefloquine, pyrimethamine and artemisinin), are then transferred into the assay plates, as well as DMSO alone to serve as a negative control for inhibition. Then 30 μl of a suspension of a NF54 or 3D7 P. falciparum infected erythrocytes in screening media is dispensed into the assay plates such that the final hematocrit is 2.5% with a final parasitemia of 0.3%. The plates are placed in a 37° C. incubator for 72 hours in a low oxygen environment containing 93% N2, 4% CO2, and 3% O2 gas mixture. 10 μl of lysis buffer (saponin, triton-X, EDTA) containing a 10× solution of SYBR Green I® in RPMI media is dispensed into the plates. The plates are lidded and kept at room temperature overnight for the lysis of the infected red blood cells. The fluorescence intensity is measured (excitation […], emission 530 nm) using the Envision™ system (Perkin Elmer).
row,SMILES,EC50 [nM]
1,"Cc1ccc(-c2cnc3cnc(C(=O)N(C)c4ccc(Cl)cc4Cl)cn23)cc1 [Compound 61, N-(2,4-dichlorophenyl)-N-methyl-3-(4-methylphenyl)imidazo[1,2-a]pyrazine-6-carboxamide]",1370
2,"CN(C(=O)c1cn2c(-c3ccc(C(F)(F)F)cc3)cnc2cn1)c1cncc(F)c1 [Compound 66, N-(5-fluoropyridin-3-yl)-N-methyl-3-[4-(trifluoromethyl)phenyl]imidazo[1,2-a]pyrazine-6-carboxamide]",5000
3,"CN(C(=O)c1cn2c(-c3ccc(C(F)(F)F)cc3)cnc2cn1)c1ccc(-c2nnn(C)n2)cc1 [Compound 68, N-methyl-N-[4-(2-methyl-2H-1,2,3,4-tetrazol-5-yl)phenyl]-3-[4-(trifluoromethyl)phenyl]imidazo[1,2-a]pyrazine-6-carboxamide]",> 10000
4,"CN(C(=O)c1cn2c(-c3ccc(Cl)c(F)c3)cnc2cn1)c1ccc(C#N)cc1 [Compound 71, 3-(4-chloro-3-fluorophenyl)-N-(4-cyanophenyl)-N-methylimidazo[1,2-a]pyrazine-6-carboxamide]",1300
5,"CN(C(=O)c1cn2c(-c3ccc(N4CCCC4)nc3)cnc2cn1)c1ccc(C#N)cc1 [Compound 82, N-(4-cyanophenyl)-N-methyl-3-[6-(pyrrolidin-1-yl)pyridin-3-yl]imidazo[1,2-a]pyrazine-6-carboxamide]",2340
6,"CN(C(=O)c1cn2c(-c3ccc4c(cnn4C)c3)cnc2cn1)c1ccc(C#N)cn1 [Compound 83, N-(5-cyanopyridin-2-yl)-N-methyl-3-(1-methyl-1H-indazol-5-yl)imidazo[1,2-a]pyrazine-6-carboxamide]",1570
7,"CN(C(=O)c1cn2c(-c3ccc4c(ccn4C)c3)cnc2cn1)c1ccc(Cl)nc1 [Compound 84, N-(6-chloropyridin-3-yl)-N-methyl-3-(1-methyl-1H-indol-5-yl)imidazo[1,2-a]pyrazine-6-carboxamide]",1280
8,"CN(C(=O)c1cn2c(-c3ccc(OC(F)F)cc3)cnc2cn1)c1ccc(C#N)cn1 [Compound 85, N-(5-cyanopyridin-2-yl)-3-[4-(difluoromethoxy)phenyl]-N-methylimidazo[1,2-a]pyrazine-6-carboxamide]",1100
9,"CN(C(=O)c1cn2c(-c3ccc(C(F)(F)F)cc3)cnc2cn1)c1cccc(F)n1 [Compound 86, N-(6-fluoropyridin-2-yl)-N-methyl-3-[4-(trifluoromethyl)phenyl]imidazo[1,2-a]pyrazine-6-carboxamide]",2010
10,"COc1ccc(N(C)C(=O)c2cn3c(-c4ccc(C(F)(F)F)cc4)cnc3cn2)cn1 [Compound 88, N-(6-methoxypyridin-3-yl)-N-methyl-3-[4-(trifluoromethyl)phenyl]imidazo[1,2-a]pyrazine-6-carboxamide]",1740
11,"CN(C(=O)c1cn2c(-c3ccc(C(F)(F)F)cc3)cnc2cn1)c1ccc(C#N)cn1 [Compound 89, N-(5-cyanopyridin-2-yl)-N-methyl-3-[4-(trifluoromethyl)phenyl]imidazo[1,2-a]pyrazine-6-carboxamide]",2070
12,"COc1ccc(-c2cnc3cnc(C(=O)N(C)c4ccc(C#N)cc4)cn23)cn1 [Compound 90, N-(4-cyanophenyl)-3-(6-methoxypyridin-3-yl)-N-methylimidazo[1,2-a]pyrazine-6-carboxamide]",826
13,"CN(C(=O)c1cn2c(-c3ccc(C(F)(F)F)cc3)cnc2cn1)c1cnc(Cl)cn1 [Compound 91, -(5-chloropyrazin-2-yl)-N-methyl-3-[4-(trifluoromethyl)phenyl]imidazo[1,2-a]pyrazine-6-carboxamide]",4300
14,"CN(C(=O)c1cn2c(-c3ccc(C(F)(F)F)cc3)cnc2cn1)c1ncc(Cl)cn1 [Compound 93, N-(5-chloropyrimidin-2-yl)-N-methyl-3-[4-(trifluoromethyl)phenyl]imidazo[1,2-a]pyrazine-6-carboxamide]",4640
15,"CN(C(=O)c1cn2c(-c3ccc(C(F)(F)F)cc3)cnc2cn1)c1ccc(Cl)nn1 [Compound 94, N-(6-chloropyridazin-3-yl)-N-methyl-3-[4-(trifluoromethyl)phenyl]imidazo[1,2-a]pyrazine-6-carboxamide]",> 10000

# The next molecules have a lower EC50 than those just listed; values first:
row,EC50 [nM],SMILES
1,82,"CN(Cc1cn2c(-c3ccc4c(cnn4C)c3)cnc2cn1)c1ccc(C#N)cc1 [Compound 62, 4-[methyl({[3-(1-methyl-1H-indazol-5-yl)imidazo[1,2-a]pyrazin-6-yl]methyl})amino]benzonitrile]"
2,387,"CN(C(=O)c1cn2c(-c3ccc(C(F)(F)F)cc3)cnc2cn1)c1ccc(F)cn1 [Compound 63, N-(5-fluoropyridin-2-yl)-N-methyl-3-[4-(trifluoromethyl)phenyl]imidazo[1,2-a]pyrazine-6-carboxamide]"
3,116,"CN(Cc1cn2c(-c3ccc(OC(F)F)cc3)cnc2cn1)c1ccc(Cl)cc1 [Compound 64, 4-chloro-N-({3-[4-(difluoromethoxy)phenyl]imidazo[1,2-a]pyrazin-6-yl}methyl)-N-methylaniline]"
4,354,"COc1ccc(-c2cnc3cnc(C(=O)N(C)c4ccc(C#N)cc4)cn23)c(F)c1 [Compound 65, N-(4-cyanophenyl)-3-(2-fluoro-4-methoxyphenyl)-N-methylimidazo[1,2-a]pyrazine-6-carboxamide]"
5,168,"COc1ccc(-c2cnc3cnc(C(=O)N(C)c4ccc(C#N)cc4)cn23)cc1 [Compound 67, N-(4-cyanophenyl)-3-(4-methoxyphenyl)-N-methylimidazo[1,2-a]pyrazine-6-carboxamide]"
6,85,"COc1ccc(-c2cnc3cnc(C(=O)N(C)c4ccc(F)cc4)cn23)cc1 [Compound 69, N-(4-fluorophenyl)-3-(4-methoxyphenyl)-N-methylimidazo[1,2-a]pyrazine-6-carboxamide]"
7,230,"CN(C(=O)c1cn2c(-c3ccc(Cl)cc3)cnc2cn1)c1ccc(Cl)cc1Cl [Compound 70, 3-(4-chlorophenyl)-N-(2,4-dichlorophenyl)-N-methylimidazo[1,2-a]pyrazine-6-carboxamide]"
8,439,"CN(C)CCN(C(=O)c1cn2c(-c3ccc(C(F)(F)F)cc3)cnc2cn1)c1ccc(C#N)cc1 [Compound 72, N-(4-cyanophenyl)-N-[2-(dimethylamino)ethyl]-3-[4-(trifluoromethyl)phenyl]imidazo[1,2-a]pyrazine-6-carboxamide]"
9,624,"CN(C(=O)c1cn2c(-c3ccc(C(F)(F)F)cc3)cnc2cn1)c1ccccc1Cl [Compound 73, N-(2-chlorophenyl)-N-methyl-3-[4-(trifluoromethyl)phenyl]imidazo[1,2-a]pyrazine-6-carboxamide]"
10,24,"CN(C(=O)c1cn2c(-c3ccc(-c4nnc(N)s4)cc3)cnc2cn1)c1ccc(C#N)cc1 [Compound 74, 3-[4-(5-amino-1,3,4-thiadiazol-2-yl)phenyl]-N-(4-cyanophenyl)-N-methylimidazo[1,2-a]pyrazine-6-carboxamide]"
11,37,"CN(C(=O)c1cn2c(-c3ccc(C(C)(F)F)cc3)cnc2cn1)c1ccc(C#N)cc1 [Compound 75, N-(4-cyanophenyl)-3-[4-(1,1-difluoroethyl)phenyl]-N-methylimidazo[1,2-a]pyrazine-6-carboxamide]"
12,116,"CN(C)c1ccc(-c2cnc3cnc(C(=O)N(C)c4ccc(C#N)cc4)cn23)cc1 [Compound 77, N-(4-cyanophenyl)-3-[4-(dimethylamino)phenyl]-N-methylimidazo[1,2-a]pyrazine-6-carboxamide]"
13,181,"CN(C(=O)c1cn2c(-c3ccc(C(F)(F)F)cc3)cnc2cn1)c1ccc(Cl)nc1 [Compound 78, N-(6-chloropyridin-3-yl)-N-methyl-3-[4-(trifluoromethyl)phenyl]imidazo[1,2-a]pyrazine-6-carboxamide]"
14,214,"CN(C(=O)c1cn2c(-c3ccc(C(F)(F)F)cc3)cnc2cn1)c1ccc(F)nc1 [Compound 79, N-(6-fluoropyridin-3-yl)-N-methyl-3-[4-(trifluoromethyl)phenyl]imidazo[1,2-a]pyrazine-6-carboxamide]"
15,258,"Cc1ccc(-c2cnc3cnc(C(=O)N(C)c4ccc(Cl)nc4)cn23)cc1 [Compound 80, -(6-chloropyridin-3-yl)-N-methyl-3-(4-methylphenyl)imidazo[1,2-a]pyrazine-6-carboxamide]"
16,382,"CN(C(=O)c1cn2c(-c3ccc(Cl)cc3)cnc2cn1)c1ccc(Cl)nc1 [Compound 81, -(4-chlorophenyl)-N-(6-chloropyridin-3-yl)-N-methylimidazo[1,2-a]pyrazine-6-carboxamide]"
17,104,"CN(C(=O)c1cn2c(-c3ccc(-n4cccn4)cc3)cnc2cn1)c1ccc(C#N)cc1 [Compound 87, N-(4-cyanophenyl)-N-methyl-3-[4-(1H-pyrazol-1-yl)phenyl]imidazo[1,2-a]pyrazine-6-carboxamide]"
18,349,"CC(C)N(C(=O)c1cn2c(-c3ccc(C(F)(F)F)cc3)cnc2cn1)c1ccc(C#N)cc1 [Compound 92, N-(4-cyanophenyl)-N-(propan-2-yl)-3-[4-(trifluoromethyl)phenyl]imidazo[1,2-a]pyrazine-6-carboxamide]"

# Same assay, conditions: Plasmodium falciparum, Erythrocyte, infected human red blood cells; read-out: EC50, P. falciparum Proliferation Assay
row,pEC50,SMILES
1,> 7.30,"CN(C)CCN(C(=O)c1cn2c(-c3ccc(C(F)(F)F)cc3)cnc2cn1)c1ccc(C#N)cc1 [Compound 72, N-(4-cyanophenyl)-N-[2-(dimethylamino)ethyl]-3-[4-(trifluoromethyl)phenyl]imidazo[1,2-a]pyrazine-6-carboxamide]"

# Source: patent US20150291598A1 (NOVARTIS AG, priority 2012, published 2015)
